Measurements as given in US4220790A, “1-N,N-Dimethylcarbamyl-3-tert.butyl-5-methylthio-1,2,4-triazole” (priority 1977, dated 1980).

What was measured:
Southern Corn Rootworm [1] = assay: Southern corn rootworm (SCR) test in cups with corn; format: in vivo; conditions: for Corn Rootworm (SCR) rating: nine days after treatment; for toxicity to corn rootworm (in words): comparative tests, nineteen compounds
Protocol: Method for Southern Corn Rootworm (SCR)
Three 5 oz. paper cups planted each with one kernel of DeKalb XL-361 corn are treated two days after planting with 10 ml of a 125 ppm solution of the candidate compound. Compounds with high efficacy are tested at lower concentrations. The experiment is a 4×5 factorial in a randomized complete block design with three replications. The tests are evaluated nine days after treatment. The roots are inspected under a dissecting microscope and rated as follows:
SCR Rating % Root Feeding Damage
So as to obtain more meaningful results, all tests are performed at the same time of day, whenever possible, usually in the forenoon. Temperature,illumination and humidity are the same in all tests. Atmospheric pressure is not controlled.
(§1) Results obtained with the novel insecticide of this invention at various concentrations of active chemical are tabulated below. The ratings given are for averages of three or more replicates. The oral lethal dose for 50 percent kill of laboratory rats is also recorded in the table. In conducting the toxicity tests on rats, 0.01 g of active chemical per ml in corn oil is employed as an additive to the diet of the animals.

Southern corn rootworm [2] = assay: Corn rootworm control under corn growing conditions, aging in soil, root damage rating; format: in vivo, Diabrotica undecimpunctata howardi; design: AVERAGE ROOT DAMAGE RATINGS, Test No. 1 / AVERAGE ROOT DAMAGE RATINGS, Test No. 2 / AVERAGE ROOT DAMAGE RATINGS, Test No. 3 / AVERAGE ROOT DAMAGE RATINGS, Test No. 4 / AVERAGE ROOT DAMAGE RATINGS, Test No. 5: scale not given here; conditions: for AVERAGE ROOT DAMAGE RATINGS, Test No. 3 / AVERAGE ROOT DAMAGE RATINGS, Test No. 4 / AVERAGE ROOT DAMAGE RATINGS, Test No. 5: 1.0 lb/A; for AVERAGE ROOT DAMAGE RATINGS, Test No. 3 / AVERAGE ROOT DAMAGE RATINGS, Test No. 1: aged 11 days; for AVERAGE ROOT DAMAGE RATINGS, Test No. 4: aged 26 days; for AVERAGE ROOT DAMAGE RATINGS, Test No. 5 / AVERAGE ROOT DAMAGE RATINGS, Test No. 2: aged 41 days; for AVERAGE ROOT DAMAGE RATINGS, Test No. 1 / AVERAGE ROOT DAMAGE RATINGS, Test No. 2: 10.0 lb/A
Description: During this period of time in the soil the insecticide concentration diminishes as a result of leaching and the action of oxygen and soil microbes, so that it is difficult to maintain sufficient concentration to kill the rootworms. […] Less than a half dozen compounds enjoy substantial commercial success for this purpose. […] Carbofuran was therefore selected as a standard for comparison of his compound and closely related compounds for corn rootworm control under corn growing conditions. The organism used in these tests were Diabrotica undecimpunctata howardi, the Southern corn rootworm. The following method was employed in the tests:
Two parallel rows of corn (Pioneer 385 g×526 g untreated) were planted 2" apart down the center of Mirro No. C8509 aluminum bread pans, 5 kernels corn per row in greenhouse potting soil. The dimensions of the bread pans are 95/8"×51/2"×23/4" and lack holes in the bottoms of the pans. Each kernel of corn at time of germination was infested with 3-day-old SCR eggs, approximately 50 eggs per kernel. Test pans were treated by drenching 200 mls of test solution (Triton X-100, water and the test chemical dissolved in 5 mls acetone) on the surface of the soil in the bread pan. The schedule for treating, planting corn, and infesting with corn rootworm eggs were varied to test aging characteristics of the compounds in soil. The test pans were watered daily and held at 80° F. and 50% R.H. until rated. Root damage rating was done by the following rating sequence:
Rating % Root Damage Rating
The chemical compound which were tested were those of the structural formula [drawing 5] in which R represents tert.butyl, methyl, ethyl, propyl, butyl and isobutyl.
The comparison standard was carbofuran (2,3-dihydro-2,2-dimethyl-7-benzofuranyl methylcarbamate).
The tests were conducted during the months of July and August according to the time schedule as set forth below: […]

two-spotted mites = assay: Spray test on two-spotted mites (TSM); design: species or system two-spotted mite; conditions: in vivo
Protocol: Method for Mites, Aphids, Bean Beetles and Army Worms
Three 5 oz. paper cups containing Henderson dwarf lima bean plants and one 5 oz. paper cup containing Orange Gem nasturtiums, all growing in vermiculite, are placed on a turntable and sprayed to thorough wetness with 25 ml of a solution of the candidate chemical at the appropriate concentration. Nasturtiums were already infested with 50-100 bean aphids (BA). A bean plant in one paper cup was already infested with 50-100 two-spotted mites (TSM). Leaves from the two remaining bean plants are removed following spraying and placed in disposable petri dishes with 5 southern armyworm (SA) larvae in one petri dish, and 5 Mexican bean beetle (MBB) larvae in the other petri dish. The rating is done approximately 48 hours after spraying as follows:
as §1

[3] = test system: insects of the orders Coleoptera and Orthoptera; assay: Effectiveness against insects of the orders Coleoptera and Orthoptera; format: in vivo

Row | SMILES | Corn Rootworm (SCR) rating (Southern Corn Rootworm [1]; 3 ppm, listed as U.S.Ser.No. 842,760) | Corn Rootworm (SCR) rating (Southern Corn Rootworm [1]; 6 ppm) | toxicity to corn rootworm (in words) (Southern Corn Rootworm [1]) | AVERAGE ROOT DAMAGE RATINGS, Test No. 3 (Southern corn rootworm [2]) | AVERAGE ROOT DAMAGE RATINGS, Test No. 4 (Southern corn rootworm [2]) | AVERAGE ROOT DAMAGE RATINGS, Test No. 5 (Southern corn rootworm [2]) | AVERAGE ROOT DAMAGE RATINGS, Test No. 1 (Southern corn rootworm [2]) | AVERAGE ROOT DAMAGE RATINGS, Test No. 2 (Southern corn rootworm [2]) | duration of efficacy against corn rootworm (in words) (Southern corn rootworm [2]; compared with carbofuran) | miticidal activity (in words) (two-spotted mites) | insecticidal effectiveness (in words) [3] | Corn Rootworm (SCR) rating (Southern Corn Rootworm [1]; 3 ppm) | Corn Rootworm (SCR) rating (Southern Corn Rootworm [1]; 12 ppm) | Corn Rootworm (SCR) rating (Southern Corn Rootworm [1]; 25 ppm) | Corn Rootworm (SCR) rating (Southern Corn Rootworm [1]; 100 ppm) | total kill of corn rootworm (in words) (Southern Corn Rootworm [1]; any concentration)
1 | CSc1nc(C(C)(C)C)nn1C(=O)N(C)C [1-N,N-Dimethylcarbamyl-3-tert.butyl-5-methylthio-1,2,4-triazole] | 3.0 | 3.3 | displayed toxicity to corn rootworm | 4.5 | 4.1 | 4.6 | 5.0 | 4.3 | efficacy of long duration, comparable to the commercial insecticide | absence of miticidal activity | effective against insects of the orders Coleoptera and Orthoptera | – | – | – | – | –
2 | CNC(=O)Oc1cccc2c1OC(C)(C)C2 [Carbofuran, 2,3-dihydro-2,2-dimethyl-7-benzofuranyl methylcarbamate] | – | – | – | 4.3 | 3.8 | 4.7 | 4.8 | 4.1 | – | – | – | – | – | – | – | –
3 | CCc1nc(SC)n(C(=O)N(C)C)n1 [Example XVI] | – | – | displayed toxicity to corn rootworm | – | – | – | – | – | – | – | – | 0.5 | 2.5 | 3.5 | 3.7 | failed to give a total kill at any concentration
4 | CCCCc1nc(SC)n(C(=O)N(C)C)n1 [R' = butyl] | – | – | – | 0 (100) | 0.4 | 0.5 | 4.4 | 3.6 | – | – | – | – | – | – | – | –
5 | CCc1nc(SC)n(C(=O)N(C)C)n1 [R' = ethyl] | – | – | – | 0 (100) | 1.1 | 1.0 | 4.3 | 3.0 | – | – | – | – | – | – | – | –
6 | CSc1nc(CC(C)C)nn1C(=O)N(C)C [R' = isobutyl] | – | – | – | 0.6 | 0.3 | 2.3 | 4.8 | 3.6 | – | – | – | – | – | – | – | –
7 | CSc1nc(C)nn1C(=O)N(C)C [R' = methyl] | – | – | – | 0 (100) | 0.1 | 0.5 | 2.7 | 0 (100) | – | – | – | – | – | – | – | –
8 | CCCc1nc(SC)n(C(=O)N(C)C)n1 [R' = propyl] | – | – | – | 0.3 | 1.8 | 2.3 | 4.4 | 3.1 | – | – | – | – | – | – | – | –
